HELM strings list units from the 5' end as sugar, base in round brackets, then linkage (d deoxyribose, r ribose, m 2'-O-methyl, p phosphodiester). Strings are as the collection lists them; they lack the last nucleoside at the 3' end of the tested compound. [moe] = 2'-O-(2-methoxyethyl) (MOE); [sp] = phosphorothioate linkage; [m5C] = 5-methylcytosine
biological target: APP; assay: mouse, dose not given; conditions: ASO

Going from “RNA1{[moe](T)[sp].[moe](T)p.[moe](G)p.[moe](T)p.[moe](A)[sp].d(G)[sp].d(G)[sp].d(A)[sp].d(A)[sp].d([m5C])[sp].d(T)[sp].d([m5C])[sp].d(G)[sp].d(A)[sp].d(A)[sp].[moe]([m5C])p.[moe]([m5C])p.[moe](A)[sp].[moe]([m5C])}$$$$ (last 3' nucleoside missing)” to “RNA1{[moe](T)[sp].[moe](T)p.[moe](T)p.[moe](A)p.[moe]([m5C])[sp].d([m5C])[sp].d(T)[sp].d(T)[sp].d(T)[sp].d(A)[sp].d(A)[sp].d([m5C])[sp].d(A)[sp].d(T)[sp].d(T)[sp].[moe]([m5C])p.[moe]([m5C])p.[moe](T)[sp].[moe]([m5C])}$$$$ (last 3' nucleoside missing)”, the 3 h FOB score falls from 2 score 0-7 to 0 score 0-7.

Going from “RNA1{[moe](T)[sp].[moe](T)p.[moe](T)p.[moe](G)p.[moe]([m5C])[sp].d(A)[sp].d(T)[sp].d(A)[sp].d(T)[sp].d(T)[sp].d([m5C])[sp].d(A)[sp].d(T)[sp].d(A)[sp].d([m5C])[sp].[moe](T)p.[moe](T)p.[moe](G)[sp].[moe](G)}$$$$ (last 3' nucleoside missing)” to “RNA1{[moe](T)[sp].[moe](T)p.[moe](T)p.[moe](G)p.[moe]([m5C])[sp].d(T)[sp].d(A)[sp].d([m5C])[sp].d(T)[sp].d(T)[sp].d(G)[sp].d(A)[sp].d(T)[sp].d(A)[sp].d(A)[sp].[moe](T)p.[moe]([m5C])p.[moe]([m5C])[sp].[moe](T)}$$$$ (last 3' nucleoside missing)”, the 3 h FOB score rises from 0 score 0-7 to 1 score 0-7.

“RNA1{[moe](T)[sp].[moe](T)p.[moe]([m5C])p.[moe](A)p.[moe]([m5C])[sp].d(A)[sp].d(G)[sp].d(T)[sp].d(T)[sp].d(T)[sp].d(A)[sp].d([m5C])[sp].d([m5C])[sp].d([m5C])[sp].d([m5C])[sp].[moe](A)p.[moe](A)p.[moe](G)[sp].[moe]([m5C])}$$$$ (last 3' nucleoside missing)” and “RNA1{[moe](T)[sp].[moe](T)p.[moe]([m5C])p.[moe]([m5C])p.[moe](A)[sp].d(A)[sp].d(A)[sp].d(G)[sp].d(A)[sp].d(T)[sp].d(T)[sp].d([m5C])[sp].d([m5C])[sp].d(A)[sp].d([m5C])[sp].[moe](T)p.[moe](T)p.[moe](T)[sp].[moe]([m5C])}$$$$ (last 3' nucleoside missing)” are the same in 3 h FOB score: 0 score 0-7 for the first, 0 score 0-7 for the second.

Compared with “RNA1{[moe](T)[sp].[moe]([m5C])p.[moe](A)p.[moe](G)p.[moe]([m5C])[sp].d([m5C])[sp].d([m5C])[sp].d([m5C])[sp].d(A)[sp].d(A)[sp].d(A)[sp].d(A)[sp].d(G)[sp].d(A)[sp].d(A)[sp].[moe](T)p.[moe](G)p.[moe]([m5C])[sp].[moe]([m5C])}$$$$ (last 3' nucleoside missing)”, “RNA1{[moe](T)[sp].[moe]([m5C])p.[moe](A)p.[moe](T)p.[moe](A)[sp].d(T)[sp].d(T)[sp].d(G)[sp].d(T)[sp].d([m5C])[sp].d(T)[sp].d(T)[sp].d([m5C])[sp].d(A)[sp].d(A)[sp].[moe](T)p.[moe](G)p.[moe](T)[sp].[moe](G)}$$$$ (last 3' nucleoside missing)” is higher in 3 h FOB score: 0 score 0-7 for the first, 2 score 0-7 for the second.

Going from “RNA1{[moe](T)[sp].[moe]([m5C])p.[moe](A)p.[moe](T)p.[moe](T)[sp].d([m5C])[sp].d(T)[sp].d([m5C])[sp].d(A)[sp].d(T)[sp].d([m5C])[sp].d([m5C])[sp].d([m5C])[sp].d([m5C])[sp].d(A)[sp].[moe](G)p.[moe](G)p.[moe](T)[sp].[moe](G)}$$$$ (last 3' nucleoside missing)” to “RNA1{[moe](T)[sp].[moe]([m5C])p.[moe](A)p.[moe](T)p.[moe]([m5C])[sp].d(A)[sp].d(A)[sp].d([m5C])[sp].d(T)[sp].d(T)[sp].d(T)[sp].d(T)[sp].d(T)[sp].d(A)[sp].d(G)[sp].[moe](T)p.[moe]([m5C])p.[moe]([m5C])[sp].[moe](T)}$$$$ (last 3' nucleoside missing)”, the 3 h FOB score rises from 0 score 0-7 to 0.67 score 0-7.

Going from “RNA1{[moe](T)[sp].[moe]([m5C])p.[moe](A)p.[moe](T)p.[moe]([m5C])[sp].d(A)[sp].d([m5C])[sp].d([m5C])[sp].d(A)[sp].d(T)[sp].d(A)[sp].d([m5C])[sp].d(A)[sp].d(T)[sp].d(A)[sp].[moe](G)p.[moe]([m5C])p.[moe](A)[sp].[moe](G)}$$$$ (last 3' nucleoside missing)” to “RNA1{[moe](T)[sp].[moe]([m5C])p.[moe](A)p.[moe]([m5C])p.[moe](A)[sp].d(G)[sp].d(T)[sp].d(T)[sp].d(T)[sp].d(A)[sp].d([m5C])[sp].d([m5C])[sp].d([m5C])[sp].d([m5C])[sp].d(A)[sp].[moe](A)p.[moe](G)p.[moe]([m5C])[sp].[moe](T)}$$$$ (last 3' nucleoside missing)”, the 3 h FOB score falls from 0.67 score 0-7 to 0 score 0-7.

Compared with “RNA1{[moe](T)[sp].[moe]([m5C])p.[moe](G)p.[moe](G)p.[moe](A)[sp].d([m5C])[sp].d(T)[sp].d(T)[sp].d(A)[sp].d([m5C])[sp].d(T)[sp].d(G)[sp].d(T)[sp].d(A)[sp].d(A)[sp].[moe](T)p.[moe](G)p.[moe](G)[sp].[moe](G)}$$$$ (last 3' nucleoside missing)”, “RNA1{[moe](T)[sp].[moe]([m5C])p.[moe](T)p.[moe](G)p.[moe](A)[sp].d(T)[sp].d(A)[sp].d(T)[sp].d(T)[sp].d([m5C])[sp].d(A)[sp].d([m5C])[sp].d(T)[sp].d(T)[sp].d(A)[sp].[moe](T)p.[moe]([m5C])p.[moe](T)[sp].[moe](G)}$$$$ (last 3' nucleoside missing)” is lower in 3 h FOB score: 1.25 score 0-7 for the first, 0 score 0-7 for the second.

Compared with “RNA1{[moe](T)[sp].[moe]([m5C])p.[moe](T)p.[moe](G)p.[moe](T)[sp].d(A)[sp].d(T)[sp].d(T)[sp].d(A)[sp].d(T)[sp].d(A)[sp].d([m5C])[sp].d(T)[sp].d([m5C])[sp].d(T)[sp].[moe](G)p.[moe](G)p.[moe](G)[sp].[moe]([m5C])}$$$$ (last 3' nucleoside missing)”, “RNA1{[moe](T)[sp].[moe]([m5C])p.[moe](T)p.[moe](T)p.[moe](G)[sp].d(A)[sp].d(T)[sp].d(A)[sp].d(T)[sp].d(T)[sp].d(T)[sp].d(G)[sp].d(T)[sp].d([m5C])[sp].d(A)[sp].[moe](A)p.[moe]([m5C])p.[moe]([m5C])[sp].[moe]([m5C])}$$$$ (last 3' nucleoside missing)” is higher in 3 h FOB score: 2.5 score 0-7 for the first, 5 score 0-7 for the second.

Going from “RNA1{[moe](T)[sp].[moe]([m5C])p.[moe](T)p.[moe](T)p.[moe]([m5C])[sp].d(A)[sp].d(A)[sp].d([m5C])[sp].d(T)[sp].d(T)[sp].d(A)[sp].d(G)[sp].d(T)[sp].d([m5C])[sp].d(A)[sp].[moe](T)p.[moe]([m5C])p.[moe]([m5C])[sp].[moe](T)}$$$$ (last 3' nucleoside missing)” to “RNA1{[moe](T)[sp].[moe]([m5C])p.[moe](T)p.[moe](T)p.[moe]([m5C])[sp].d(A)[sp].d([m5C])[sp].d(T)[sp].d([m5C])[sp].d([m5C])[sp].d([m5C])[sp].d(A)[sp].d(T)[sp].d([m5C])[sp].d(T)[sp].[moe](G)p.[moe]([m5C])p.[moe](A)[sp].[moe](T)}$$$$ (last 3' nucleoside missing)”, the 3 h FOB score rises from 0 score 0-7 to 1 score 0-7.
